ChEMBL document CHEMBL4619709, “Synthesis and in-vitro anti-cancer evaluations of multi-methoxylated asymmetrical diarylpentanoids as intrinsic apoptosis inducer against colorectal cancer” (Bioorg Med Chem Lett, 2020)
Active and inactive are the calls of the source. No cut-off for these calls is given here.

Tests used:
SW-620 [1] = experiment: Antiproliferative activity against human SW620 cells assessed as reduction in cell viability after 72 hrs by MTT assay; format: functional, cell-based; settings: SW-620, 72 h
RKO [2] = experiment: Induction of apoptosis in human RKO cells assessed as reduction in procaspase-7 expression after 24 to 72 hrs by Western blot analysis; format: functional, cell-based
[3] = Therapeutic index, ratio of IC50 for human NHDF cells to IC50 for human RKO cells after 72 hrs; format: toxicity; settings: NHDF cells versus RKO cells, read-out: Ratio IC50
RKO [4] = experiment: Induction of cell cycle arrest in human RKO cells assessed as accumulation at G0/G1 phase at 0.625 uM after 24 hrs by PI-staining based flow cytometry (reference value: 52%); format: functional
LoVo [5] = experiment: Antiproliferative activity against human LoVo cells assessed as reduction in cell viability after 72 hrs by MTT assay; format: functional, cell-based
RKO [6] = experiment: Induction of apoptosis in human RKO cells assessed as reduction in bcl-xl expression after 24 hrs by Western blot analysis; format: functional, cell-based
T84 [7] = experiment: Antiproliferative activity against human T84 cells assessed as reduction in cell viability after 72 hrs by MTT assay; format: functional, cell-based; settings: T84, 72 h
LoVo [8] = experiment: Antiproliferative activity against human LoVo cells at 10 uM after 72 hrs by MTT assay; format: functional, cell-based
[9] = Therapeutic index, ratio of IC50 for human NHDF cells to IC50 for human SW620 cells after 72 hrs; format: toxicity; settings: NHDF cells versus SW620 cells, read-out: Ratio IC50
HT-29 [10] = experiment: Antiproliferative activity against human HT-29 cells at 10 uM after 72 hrs by MTT assay; format: functional, cell-based
RKO [11] = experiment: Induction of apoptosis in human RKO cells assessed as increase in caspase-9 expression after 24 to 72 hrs by Western blot analysis; format: functional, cell-based
RKO [12] = experiment: Induction of apoptosis in human RKO cells assessed as increase in bax protein expression after 24 to 72 hrs by Western blot analysis; format: functional, cell-based
RKO [13] = experiment: Induction of apoptosis in human RKO cells assessed as reduction in bcl-2 expression after 24 hrs by Western blot analysis; format: functional, cell-based
RKO [14] = experiment: Inhibition of colony formation in human RKO cells at 0.625 uM treated for 9 days by crystal violet staining based assay; format: functional, cell-based
RKO [15] = experiment: Induction of cell cycle arrest in human RKO cells assessed as accumulation at G0/G1 phase at 1.25 uM after 24 hrs by PI-staining based flow cytometry (reference value: 52%); format: functional
[16] = Therapeutic index, ratio of IC50 for human NHDF cells to IC50 for human T84 cells after 72 hrs; format: toxicity; settings: NHDF cells versus T84 cells, read-out: Ratio IC50
RKO [17] = experiment: Induction of cell cycle arrest in human RKO cells assessed as accumulation at G0/G1 phase at 2.5 uM after 24 hrs by PI-staining based flow cytometry (reference value: 52%); format: functional
RKO [18] = experiment: Induction of ROS generation in human RKO cells by fluorescence based assay; format: functional, cell-based
RKO [19] = experiment: Induction of apoptosis in human RKO cells assessed as reduction in bcl-xl expression after 72 hrs by Western blot analysis; format: functional, cell-based
[20] = Therapeutic index, ratio of IC50 for human NHDF cells to IC50 for human NCI-H508 cells after 72 hrs; format: toxicity; settings: NHDF cells versus NCI-H508 cells, read-out: Ratio IC50
RKO [21] = experiment: Inhibition of colony formation in human RKO cells at 1.25 to 5 uM after 9 days by crystal violet staining based assay; format: functional, cell-based
RKO [22] = experiment: Induction of apoptosis in human RKO cells at 0.625 to 5 uM after by Annexin V-FITC/PI staining based flow cytometry; format: functional, cell-based; settings: TDE = time-dependent effect
RKO [23] = experiment: Induction of apoptosis in human RKO cells assessed as increase in bad protein expression after 24 to 72 hrs by Western blot analysis; format: functional, cell-based
RKO [24] = experiment: Induction of cell cycle arrest in human RKO cells assessed as accumulation at S phase at 0.625 uM after 24 hrs by PI-staining based flow cytometry (reference value: 28%); format: functional
RKO [25] = experiment: Induction of cell cycle arrest in human RKO cells assessed as accumulation at G2/M phase at 1.25 uM after 24 hrs by PI-staining based flow cytometry (reference value: 20%); format: functional
NHDF = experiment: Cytotoxicity against human NHDF cells assessed as reduction in cell viability; format: cell-based
[26] = Therapeutic index, ratio of IC50 for human NHDF cells to IC50 for human LoVo cells after 72 hrs; format: toxicity; settings: NHDF cells versus LoVo cells, read-out: Ratio IC50
RKO [27] = experiment: Induction of apoptosis in human RKO cells after 24 to 72 hrs by Annexin V-FITC/PI staining based flow cytometry; format: functional, cell-based
[28] = Therapeutic index, ratio of IC50 for human NHDF cells to IC50 for human HT-29 cells after 72 hrs; format: toxicity; settings: NHDF cells versus HT-29 cells, read-out: Ratio IC50
HT-29 [29] = experiment: Antiproliferative activity against human HT-29 cells assessed as reduction in cell viability after 72 hrs by MTT assay; format: functional, cell-based; settings: HT-29, 72 h
RKO [30] = experiment: Induction of apoptosis in human RKO cells assessed as reduction in procaspase-3 expression after 24 to 72 hrs by Western blot analysis; format: functional, cell-based
RKO [31] = experiment: Inhibition of colony formation in human RKO cells after 9 days by crystal violet staining based assay; format: functional, cell-based
RKO [32] = experiment: Induction of cell cycle arrest in human RKO cells assessed as accumulation at G2/M phase at 2.5 uM after 24 hrs by PI-staining based flow cytometry (reference value: 20%); format: functional
RKO [33] = experiment: Induction of cell cycle arrest in human RKO cells assessed as accumulation at S phase at 2.5 uM after 24 hrs by PI-staining based flow cytometry (reference value: 28%); format: functional
RKO [34] = experiment: Induction of cell cycle arrest in human RKO cells assessed as accumulation at S phase at 1.25 uM after 24 hrs by PI-staining based flow cytometry (reference value: 28%); format: functional
SW-620 [35] = experiment: Antiproliferative activity against human SW620 cells at 10 uM after 72 hrs by MTT assay; format: functional, cell-based
RKO [36] = experiment: Induction of apoptosis in human RKO cells assessed as reduction in procaspase-9 expression after 24 to 72 hrs by Western blot analysis; format: functional, cell-based
T84 [37] = experiment: Antiproliferative activity against human T84 cells at 10 uM after 72 hrs by MTT assay; format: functional, cell-based
NCI-H508 [38] = experiment: Antiproliferative activity against human NCI-H508 cells at 10 uM after 72 hrs by MTT assay; format: functional, cell-based
RKO [39] = experiment: Antiproliferative activity against human RKO cells assessed as reduction in cell viability after 72 hrs by MTT assay; format: functional, cell-based
RKO [40] = experiment: Induction of cell cycle arrest in human RKO cells assessed as accumulation at G2/M phase at 0.625 uM after 24 hrs by PI-staining based flow cytometry (reference value: 20%); format: functional
NCI-H508 [41] = experiment: Antiproliferative activity against human NCI-H508 cells assessed as reduction in cell viability after 72 hrs by MTT assay; format: functional, cell-based; settings: NCI-H508, 72 h
RKO [42] = experiment: Antiproliferative activity against human RKO cells at 10 uM after 72 hrs by MTT assay; format: functional, cell-based

Q: With COc1cc(/C=C2\CCC/C(=C\c3ccc(O)c(Cl)c3)C2=O)cc(OC)c1OC as the compound, how does the IC50 (SW-620 [1]) read?
A: Its IC50 is 800 nM.

Q: What about the Activity (RKO [2]) of the same compound?
A: The Activity was “Active”.

Q: What about the selectivity ratio at 72 h [3] of the same compound?
A: Its selectivity ratio at 72 h is 1.8 to 9.9.

Q: And the Activity (RKO [4])?
A: The Activity was 52%.

Q: What about the IC50 (LoVo [5]) of the same compound?
A: Its IC50 is 1100 nM.

Q: And the Activity (RKO [6])?
A: Its Activity is “Active”.

Q: And the IC50 (T84 [7])?
A: The IC50 was 1800 nM.

Q: And the Activity (LoVo [8])?
A: The Activity was “Active”.

Q: What about the selectivity ratio at 72 h [9] of the same compound?
A: The selectivity ratio at 72 h was 1.8 to 9.9.

Q: And the Activity (HT-29 [10])?
A: The Activity was “Active”.

Q: What about the Activity (RKO [11]) of the same compound?
A: Its Activity is “Active”.

Q: And the Activity (RKO [12])?
A: Its Activity is “Active”.

Q: And the Activity (RKO [13])?
A: Its Activity is “Active”.

Q: What about the inhibition (RKO [14]) of the same compound?
A: Its inhibition is “inactive”.

Q: What about the Activity (RKO [15]) of the same compound?
A: Its Activity is 52%.

Q: What about the selectivity ratio at 72 h [16] of the same compound?
A: The selectivity ratio at 72 h was 1.8 to 9.9.

Q: What about the Activity (RKO [17]) of the same compound?
A: The Activity was 27%.

Q: And the Activity (RKO [18])?
A: Its Activity is “Dose-dependent effect”.

Q: What about the Activity (RKO [19]) of the same compound?
A: The Activity was “inactive”.

Q: And the selectivity ratio at 72 h [20]?
A: Its selectivity ratio at 72 h is 1.8 to 9.9.

Q: And the inhibition (RKO [21])?
A: The inhibition was “Active”.

Q: And the Activity (RKO [22])?
A: Its Activity is “Tde”.

Q: And the Activity (RKO [23])?
A: Its Activity is “Active”.

Q: What about the Activity (RKO [24]) of the same compound?
A: Its Activity is 27%.

Q: What about the Activity (RKO [25]) of the same compound?
A: Its Activity is 28%.

Q: And the IC50 (NHDF)?
A: The IC50 was 6.9 µM.

Q: What about the selectivity ratio at 72 h [26] of the same compound?
A: The selectivity ratio at 72 h was 1.8 to 9.9.

Q: And the Activity (RKO [27])?
A: The Activity was “Dose-dependent effect”.

Q: What about the selectivity ratio at 72 h [28] of the same compound?
A: The selectivity ratio at 72 h was 1.8 to 9.9.

Q: And the IC50 (HT-29 [29])?
A: The IC50 was 3.4 µM.

Q: What about the Activity (RKO [30]) of the same compound?
A: Its Activity is “Active”.

Q: What about the inhibition (RKO [31]) of the same compound?
A: Its inhibition is “Dose-dependent effect”.

Q: And the Activity (RKO [32])?
A: The Activity was 50%.

Q: What about the Activity (RKO [33]) of the same compound?
A: Its Activity is 23%.

Q: What about the Activity (RKO [34]) of the same compound?
A: The Activity was 20%.

Q: What about the Activity (SW-620 [35]) of the same compound?
A: The Activity was “Active”.

Q: What about the Activity (RKO [36]) of the same compound?
A: Its Activity is “Active”.

Q: And the Activity (T84 [37])?
A: Its Activity is “Active”.

Q: What about the Activity (NCI-H508 [38]) of the same compound?
A: Its Activity is “Active”.

Q: What about the IC50 (RKO [39]) of the same compound?
A: Its IC50 is 700 nM.

Q: And the Activity (RKO [40])?
A: The Activity was 21%.

Q: And the IC50 (NCI-H508 [41])?
A: The IC50 was 4 µM.

Q: What about the Activity (RKO [42]) of the same compound?
A: The Activity was “Active”.
